Converted amounts (≈) assume the structure as drawn. “Also recorded” adds a separate entry of the source. Where two headings read alike, the source gives them in different places.
Experiments:
[1] = tested on: human embryonic cell line H9; experiment: Cytotoxicity assay (MTS), embryonic cytotoxicity; format: cell-based; conditions: H9 cells, 3 days, 25% inhibitory concentration
Experimental: (§1) A set of 30 compounds of known teratogenicity was selected to establish and validate the µP-hPST (Table 1). The compounds include equal number of non-teratogens and teratogens, and differ in chemical property and therapeutic usage. Before tested in the µP-hPSC colonies, the cytotoxicity profile of each compound was acquired. Two cell lines, hPSC line H9 and adult human dermal fibroblast line aHDF, were tested to represent embryonic cytotoxicity and general cytotoxicity of the compound respectively (Supplementary Figs S1, S2). The IC25 values, which were the 25% inhibitory concentrations, were calculated as the highest non-cytotoxic concentrations of the compound (Table 2, Fig. 1).
(§2) Human embryonic cell line H9 (WiCell Research Institute, Inc) and adult human dermal fibroblast (aHDF, Lonza) were cultured as previously described. Briefly, H9 cells were cultured in tissue culture plates coated with Matrigel^TM (354277, BD Biosciences) in mTeSR^TM1 medium (05850, StemCell^TM Technologies). Dispase (07923, StemCell^TM Technologies) treatment and mechanical scraping were applied during normal subculture. The aHDF cells was cultured in DMEM medium (10569-010, Gibco), supplemented with 10% FBS (SV30160.03, Thermo Scientific Hyclone) and 1% Pen-Strep (09367-34, Nacalai Tesque). Cells were subcultured every 5–6 days using 0.25% Trypsion-EDTA (25200-114, Gibco) to detach the cells.
(§3) The adverse effect of test compounds on cell proliferation and viability was detected using CellTiter 96® AQueous One Solution Cell Proliferation Assay (MTS, G3580, Promega). 10,000 H9 cells or 500 aHDF cells were seeded in 96-well tissue culture plates. For H9 cells, Matrigel^TM was coated before seeding. For each compound, 8 concentrations from serial 5-fold dilutions were tested besides the vehicle controls. Cells were cultured for 3 days with medium half change every day before cell viability was measured. Each drug was tested in three independent runs and its IC25 values (inhibitory concentrations which can cause 25% of reduction in cell number) were acquired by logistic regression using OriginPro 9.

[2] = tested on: adult human dermal fibroblasts (aHDF); experiment: Cytotoxicity assay (MTS), general cytotoxicity; format: cell-based; conditions: aHDF cells, 3 days, 25% inhibitory concentration
Experimental: as §1, §2, §3

[3] = cited from earlier work
[4] = tested on: µP-hPSC colonies (H9) under mesoendoderm induction; experiment: µP-hPST: mesoendoderm pattern disruption in µP-hPSC colonies and two-step teratogen classification; conditions: for Teratogenicity in µP-hPST / Teratogenicity in µP-hPST (in words): two-step classification rule; for Mesoendoderm pattern disruption seen in T fluorescent images: 3 days of compound exposure, in words
[5] = tested on: hPSC; set-up: method as in PMID 24123775; conditions: cited from earlier work
[6] = cited from earlier work; for In vivo teratogenicity: Table 1, known teratogenicity; for In vivo teratogenicity (in words): Supplementary Tables S2, S3
[7] = human plasma, ref U.S. FDA website, EMA website or published journals (Supplementary Table S1)

Compound | IC25H9 [1] [µg/mL] | IC25aHDF [2] [µg/mL] | Cmax [3, 7] [µg/mL] | Teratogenicity in µP-hPST [4] | Teratogenicity in other in vitro assays [5] | In vivo teratogenicity [6] | Mesoendoderm pattern disruption seen in T fluorescent images [4] | In vivo teratogenicity (in words) [6] | Classification in the Targeted Biomarker Assay (in words) [5] | Teratogenicity in µP-hPST (in words) [4] | Cmax ([3]; compounds tested previously) [µg/mL] | Defects caused in newborns [6] | Anomalies known to be induced [6]
Cc1ccc(NC(=O)c2ccc(CN3CCN(C)CC3)cc2)cc1Nc1nccc(-c2cccnc2)n1 [Imatinib] | 19.5 (≈ 39.5 µM) | 2.7 (≈ 5.47 µM) | 1.56 |  |  |  |  |  |  |  |  |  | 
CN(C)CCOC(c1ccccc1)c1ccccc1 [Diphenhydramine] | 2.4 (≈ 9.4 µM) | 31.4 (≈ 123 µM) |  | NON |  |  |  |  |  |  |  |  | 
NNC(=O)c1ccncc1 [Isoniazid] | 370 (≈ 2700 µM) | 488 (≈ 3560 µM) | 3.09 | NON | NON[6] | NON |  |  |  |  |  |  | 
Nc1nc2c(ncn2COCCO)c(=O)[nH]1 [Acyclovir] | 267 (≈ 1190 µM) | 285 (≈ 1270 µM) | 5.65 |  |  |  |  |  |  |  |  |  | 
CS(=O)(=O)OCCCCOS(C)(=O)=O [Busulfan] | 0.5 (≈ 2.03 µM) | 19.2 (≈ 78 µM) | 1.22 | TER | TER[6] | TER | much smaller and concentrated mesoendoderm patterns were observed | Teratogen |  |  |  |  | 
CC[C@H](C)C(=O)O[C@H]1C[C@@H](C)C=C2C=C[C@H](C)[C@H](CC[C@@H]3C[C@@H](O)CC(=O)O3)[C@H]21 [Lovastatin] |  | 0.68 (≈ 1.68 µM) | 0.01 | TER | NON[6] | TER | promote cell migration | Teratogen | misclassified | correctly classify |  |  | 
Cn1cc[nH]c1=S [Methimazole] | 252 (≈ 2210 µM) | >1000 |  | TER |  | TER | promote mesoendoderm differentiation while decrease collective cell migration | Teratogen |  |  |  |  | 
CCN(CC)CCNC(=O)c1cc(Cl)c(N)cc1OC [Metoclopramide] | 162 (≈ 540 µM) | 154 (≈ 514 µM) | 0.04 | NON | NON[6] | NON |  | Non-teratogen |  |  |  |  | 
Cn1c(=O)c2c(ncn2C)n(C)c1=O [Caffeine] | 85.4 (≈ 440 µM) | 129 (≈ 664 µM) | 10 |  |  |  |  |  |  |  |  |  | 
O=C1O[C@H]([C@@H](O)CO)C(O)=C1O [Ascorbic acid] | 105 (≈ 596 µM) | 63 (≈ 358 µM) | 156 | NON |  |  |  |  |  |  |  |  | 
N[C@@H](CC(=O)N1CCn2c(nnc2C(F)(F)F)C1)Cc1cc(F)c(F)cc1F [Sitagliptin] | 359 (≈ 881 µM) | 77.1 (≈ 189 µM) | 0.39 | NON | NON[6] | NON |  |  |  |  |  |  | 
COc1ccccc1Oc1c(NS(=O)(=O)c2ccc(C(C)(C)C)cc2)nc(-c2ncccn2)nc1OCCO [Bosentan] | 43.8 (≈ 79.4 µM) | 19.9 (≈ 36.1 µM) | 8.17 | TER | NON[6] | TER |  | Teratogen | misclassified | correctly classify |  |  | 
COc1cc2ncnc(Nc3ccc(F)c(Cl)c3)c2cc1OCCCN1CCOCC1 [Gefitinib] | 4.6 (≈ 10.3 µM) | 1.66 (≈ 3.71 µM) | 0.93 | TER |  |  |  |  |  |  |  |  | 
CCOC(=O)N1CCC(=C2c3ccc(Cl)cc3CCc3cccnc32)CC1 [Loratadine] | 24 (≈ 62.7 µM) | 3.2 (≈ 8.36 µM) |  |  | NON[6] | NON |  |  |  |  |  |  | 
CC1(C)S[C@@H]2[C@H](NC(=O)Cc3ccccc3)C(=O)N2[C@H]1C(=O)O [Penicillin G] |  |  |  |  |  |  |  |  |  | Non-teratogen | 400 |  | 
NC(=O)N1c2ccccc2C=Cc2ccccc21 [Carbamazepine] | 21 (≈ 88.9 µM) | 28 (≈ 119 µM) | 11 | TER | TER[6] | TER | decrease both cell differentiation and migration | Teratogen |  | detect the teratogenic effects |  | neural tube defects, cardiovascular and urinary tract anomalies, and cleft palate | 
CC(=O)Nc1ccc(O)cc1 [Acetaminophen] | 171 (≈ 1130 µM) | 40 (≈ 265 µM) | 24 |  | NON[6] | NON |  |  |  |  |  |  | 
CN(C)CCOC(C)(c1ccccc1)c1ccccn1 (stereo not shown) [Doxylamine] | 87 (≈ 322 µM) | 45 (≈ 166 µM) | 0.12 | NON |  |  |  |  |  |  |  |  | 
CC1(C)S[C@@H]2[C@H](NC(=O)[C@H](N)c3ccc(O)cc3)C(=O)N2[C@H]1C(=O)O [Amoxicillin] | >1000 | >1000 | 14.4 | NON | NON[6] | NON |  | Non-teratogen |  |  |  |  | 
O=C1NC(=O)C(c2ccccc2)(c2ccccc2)N1 [Diphenylhydantoin] | 56 (≈ 222 µM) | 140 (≈ 555 µM) | 20 | TER | NON[6] | TER | slow down or prevent mesoendoderm cell migration | Teratogen | misclassified | correctly classify; also recorded: detect the teratogenic effects |  |  | orofacial, limb, cardiovascular and neurobehavioral anomalies
Nc1nc2ncc(CNc3ccc(C(=O)N[C@@H](CCC(=O)O)C(=O)O)cc3)nc2c(=O)[nH]1 [Folic acid] | 888 (≈ 2010 µM) | 894 (≈ 2030 µM) | 0.27 | NON |  |  |  |  |  |  |  |  | 

— paper PMC5561212, “In Vitro Micropatterned Human Pluripotent Stem Cell Test (µP-hPST) for Morphometric-Based Teratogen Screening” (Scientific Reports, 2017)
